The structures appear in SMILES notation.

The subject of the data set is Homo sapiens. Briefly: Percent of the drug absorbed after administration to humans was determined. The data set is classed as ADME, organism-based. The note with it: in vivo.
Turning to `C=CCc1ccccc1OCC(O)CNC(C)C` (stereo not drawn) [ALPRENOLOL], the Absorption was 96%.
For `O=C(O)P(=O)(O)O` [FOSCARNET] the value was 17%.
The same measure for `CC(C)NCC(O)COc1cccc2[nH]ccc12` (stereo not drawn) [PINDOLOL]: 92%; for `Cc1cc(=O)n(-c2ccccc2)n1C` [ANTIPYRINE]: 97%.
For `OC[C@@H](O)[C@@H](O)[C@H](O)[C@H](O)CO` [MANNITOL] the value was 26%; for `OC[C@H]1O[C@@H](O[C@@H]2[C@@H](CO)O[C@](O)(CO)[C@H]2O)[C@H](O)[C@@H](O)[C@H]1O` [LACTULOSE], 0.6%.
Consider `CCN1CCCC1CNC(=O)c1cc(S(N)(=O)=O)ccc1OC` (stereo not drawn) [SULPIRIDE], for which the Absorption is recorded as 36%.
For `OC[C@H]1O[C@H](OC[C@H]2O[C@H](O[C@]3(CO)O[C@H](CO)[C@@H](O)[C@@H]3O)[C@H](O)[C@@H](O)[C@@H]2O)[C@H](O)[C@@H](O)[C@H]1O` [RAFFINOSE] the value was 0.3%; for `C=CCOc1ccccc1OCC(O)CNC(C)C` (stereo not drawn) [OXPRENOLOL], 97%.
The same measure for `O=C(O)c1cc(/N=N/c2ccc(S(=O)(=O)Nc3ccccn3)cc2)ccc1O` [SULFASALAZINE]: 12%.
In turn, `O=C(O)c1cc(/N=N/c2ccc(O)c(C(=O)O)c2)ccc1O` [OLSALAZINE] showed an Absorption of 2.3%.
The same measure for `NC[C@H]1CC[C@H](C(=O)O)CC1` [TRANEXAMIC ACID]: 55%; for `Cc1ccccc1N1C(=O)c2cc(S(N)(=O)=O)c(Cl)cc2NC1C` (stereo not drawn) [METOLAZONE]: 64%.

(Values after ChEMBL document CHEMBL1132208, “Molecular hashkeys: a novel method for molecular characterization and its application for predicting important pharmaceutical properties of molecules” (J Med Chem, 1999).)
